Source: publication PMC10536004, “Gallation and B-Ring Dihydroxylation Increase Green Tea Catechin Residence Time in Plasma by Differentially Affecting Tissue-Specific Trafficking: Compartmental Model of Catechin Kinetics in Healthy Adults” (Nutrients, 2023)
Where two headings read alike, the source gives them in different places.

Assays:
pancreatic tumor cells = conditions: cited from earlier work
Caco-2 monolayer = conditions: cited from earlier work
[1] = Compartmental model of catechin kinetics from plasma and urine pharmacokinetic data after ingestion of GTE confection; type: in vivo, healthy adults
From the text: Data for the present study were obtained from our prior investigation of the pharmacokinetics of green tea polyphenols in healthy adults. The study protocol was approved by the Biomedical Institutional Review Board at Ohio State University (#2017H0246) and registered at ClinicalTrials.gov (NCT03413735). In brief, 19 healthy adults (10 males and 9 females; 27 ± 2 y; 22 ± 0 kg/m^2) who were normotensive (systolic blood pressure, 112.1 ± 2.3 mmHg and diastolic blood pressure, 72.5 ± 1.6 mmHg) normoglycemic (fasting glucose, 92.3 ± 1.8 mg/dL) and normolipidemic (total cholesterol, 181.1 ± 7.8 mg/dL and triglyceride 61.7 ± 7.5 mg/dL) completed the study in the Columbus, Ohio area. Participants were non-smokers, non-users of dietary supplements, non-regular tea drinkers (<2 cups/wk), consumed <3 alcoholic drinks/d, non-pregnant or non-lactating, not using any medications or antibiotics, and had no history of gastrointestinal disorders or surgeries.
Complete details of the pharmacokinetic study were reported in [24]. In brief, participants abstained from polyphenol-rich foods for 3 d. In the fasting state (10–12 h) on day 4, participants voided their bladder, and a catheter was inserted into the antecubital vein to collect blood samples at baseline (0 h) and at 0.25, 0.5, 1, 2, 3, 5, 8, 10, and 12 h post-ingestion of a confection formulated with catechin-rich GTE. Urine was collected in timed intervals from 0–4, 4–8, 8–12, and 12–24 h (Figure 2). Participants received standardized meals at 4 h (11:00), 6 h (13:00) and 12 h (19:00) following confection ingestion. Snacks (e.g., pretzels, crackers) were also provided between 13:00–19:00. All foods were devoid of polyphenols and provided to participants in a eucaloric manner based on estimated energy requirements using the Harris–Benedict formula [25]. Controlled meals were designed to provide 48–55% of energy from carbohydrates, 15–20% from proteins, and 20–35% from fats. No additional foods or beverages, except water, were consumed by participants during the 24 h trial period.
GTE confections were developed as an alternative delivery system for catechins because Americans prefer catechin-deplete black tea over catechin-rich green tea. Confections were prepared in-house and formulated with 84.5% water, 2% sucrose, 6% gelatin, 0.5% citric acid, 6% lime-flavored gelatin, and 1% decaffeinated GTE powder. Confections were prepared within 24 h of the participants’ pharmacokinetics trial and stored at 4 °C. Each participant ingested 2 confections (each 25 g and ~2.5″ cubed), which contained 0.5 g GTE (Sunphenon 90 LB, Taiyo International, Inc., Minneapolis, MN, USA) to provide 445 mg total catechins (290 mg EGCG, 87 mg EGC, 39 mg EC, 28 mg ECG). The catechin content of all confections was confirmed by HPLC analysis. Based on brewed green tea (250 mL prepared with 2.2 g of dry tea leaves) containing ~180 mg total catechins, GTE at 0.5 g approximates 2.5 cups of green tea.
Biospecimen handling and preservation of catechins concentrations in plasma and urine were described. In brief, venous plasma was collected in heparinized tubes, while urine was collected in sterilized containers. Samples were preserved by adding a solution of acetic acid, ascorbic acid, and EDTA, snap-frozen in liquid nitrogen and stored at −80 °C until analyzed. Plasma and urinary catechins (EGCG, EGC, ECG, EC) were analyzed by LC-MS following enzymatic hydrolysis and extraction as reported.
Tissue-specific kinetics of each catechin were determined by model-based compartmental analysis using the Windows version of Simulation, Analysis, and Modeling software (WinSAAM version 3.0.8). The observed data were expressed as a fraction of the ingested dose, i.e., the mass of catechins measured in plasma/urine at specified times divided by the mass of the ingested catechin dose. […]

[2] = test system: nonalcoholic steatohepatitis; parameters: method as in PMID 32688217; conditions: obese mice, equal doses in diet; cited from earlier work
[3] = in vivo; cited from earlier work
[4] = alkaline pH; cited from earlier work
[5] = in vitro; cited from earlier work
[6] = 0.5 g GTE confection, n = 19, two-way ANOVA with Tukey's post-hoc
[7] = fractional catabolic rate from plasma, not statistically significant

Compound	anti-inflammatory activity compared with EGCG (pancreatic tumor cells)	basal-to-apical transport of catechins, rank order (Caco-2 monolayer; Caco-2 cell model)	fractional catabolic rate (FCR), fraction of compound lost irreversibly from plasma per min, rank order [1, 6]	plasma residence time, rank order [1, 6]	mean FCR higher in females compared with males [1, 7] [%]	fractional transfer rate from plasma to extravascular tissues, rank order ([1]; n = 19)	fractional transfer rate from plasma to kidneys, rank order ([1]; n = 19)	fractional transfer rate from the liver to plasma, rank order ([1]; n = 19)	alleviating pathological evidence of nonalcoholic steatohepatitis [2]	fraction present in human plasma following oral administration of green tea [3] [%]	also measured
O=C(O[C@@H]1Cc2c(O)cc(O)cc2O[C@@H]1c1ccc(O)c(O)c1)c1cc(O)c(O)c(O)c1 [ECG, epicatechin gallate]	superior	EC > EGC > ECG ≈ EGCG	EGC > EGCG = EC > ECG	ECG > EC = EGCG > EGC	5	EGC > EGCG > EC > ECG	EGC = EC > EGCG = ECG	EGC > EC > EGCG = ECG	–	–	fractional transfer from the small intestine to the liver ([1]; ECG compared with EC): slower; fractional transfer from kidneys to urine ([1]; ECG vs. EC): slower; fractional transfer rate from the upper gastrointestinal tract to the small intestine ([1]; compared with other catechins): faster
Oc1cc(O)c2c(c1)OC(c1ccc(O)c(O)c1)C(O)C2 (single isomer, unassigned; (+)) [catechin, (+)-catechin]	–	–	–	–	–	–	–	–	effective	–	–
Oc1cc(O)c2c(c1)O[C@H](c1ccc(O)c(O)c1)[C@H](O)C2 [EC, epicatechin]	–	EC > EGC > ECG ≈ EGCG	EGC > EGCG = EC > ECG	ECG > EC = EGCG > EGC	9	EGC > EGCG > EC > ECG	EGC = EC > EGCG = ECG	EGC > EC > EGCG = ECG	–	1.1	–
catechin gallate [reference compound]	superior	–	–	–	–	–	–	–	–	–	–
O=C(O[C@@H]1Cc2c(O)cc(O)cc2O[C@@H]1c1cc(O)c(O)c(O)c1)c1cc(O)c(O)c(O)c1 [EGCG, epigallocatechin gallate]	–	EC > EGC > ECG ≈ EGCG	EGC > EGCG = EC > ECG	ECG > EC = EGCG > EGC	33	EGC > EGCG > EC > ECG	EGC = EC > EGCG = ECG	EGC > EC > EGCG = ECG	more potent	0.16	loss by degradation in alkaline environment of the small intestine compared with ECG and EC [4]: greater loss; free radical scavenging activity [5]: superior
Oc1cc(O)c2c(c1)O[C@H](c1cc(O)c(O)c(O)c1)[C@H](O)C2 [EGC, epigallocatechin]	–	–	–	–	–	–	–	–	–	0.58	basal-to-apical transport of catechins, rank order (Caco-2 monolayer): EC > EGC > ECG ≈ EGCG; mean FCR higher in females compared with males ([1]; both, human, in vivo): 13%; fractional catabolic rate (FCR), fraction of compound lost irreversibly from plasma per min, rank order ([1]; in vivo): EGC > EGCG = EC > ECG; fractional transfer rate from plasma to extravascular tissues, rank order ([1]; in vivo): EGC > EGCG > EC > ECG; fractional transfer rate from plasma to kidneys, rank order ([1]; in vivo): EGC = EC > EGCG = ECG; fractional transfer rate from the liver to plasma, rank order ([1]; in vivo): EGC > EC > EGCG = ECG; plasma residence time, rank order ([1]; in vivo): ECG > EC = EGCG > EGC
